The values that follow come from ChEMBL document CHEMBL3045985, “Three-dimensional common-feature hypotheses for hypoglycemic flavonyl-2,4-thiazolidinedione derivatives” (2010).

The test system of the first test is INS1. In words: Hypoglycemic activity in Rattus norvegicus (rat) INS1 cells assessed as insulin release at 5.6 mmol/l after 90 min (reference value: 62.96 +/- 5.68 to 69.70 +/- 4.98 %). Type of test: functional.
For `OC[C@H]1OC(O)[C@H](O)[C@@H](O)[C@@H]1O` (stereo partly drawn) [DEXTROSE], the Activity was found to be 100%.

The next test concerns INS1. In words: Hypoglycemic activity in Rattus norvegicus (rat) INS1 cells assessed as glucose-mediated insulin release at 10 umol/l after 90 min (reference value: 62.96 +/- 5.68 to 69.70 +/- 4.98 %). Type of test: functional.
For the molecule `CN(CCOc1ccc(CC2SC(=O)NC2=O)cc1)c1ccccn1` (stereo not drawn) [ROSIGLITAZONE], the Activity is recorded as 116%.

The next test relates to INS1. In words: Hypoglycemic activity in Rattus norvegicus (rat) INS1 cells assessed as glucose-mediated insulin release at 1 ug/ml after 90 min (reference value: 62.96 +/- 5.68 to 69.70 +/- 4.98 %). Format: functional.
`COc1ccc(Cl)cc1C(=O)NCCc1ccc(S(=O)(=O)NC(=O)NC2CCCCC2)cc1` [GLYBURIDE]: the Activity came out at 210.4%.

For a further test, the system named is INS1. As to the kind of experiment: Hypoglycemic activity in Rattus norvegicus (rat) INS1 cells assessed as glucose-mediated insulin release after 90 min (reference value: 62.96 +/- 5.68 to 69.70 +/- 4.98 %). Type of test: functional.
As for `O=C1NC(=S)N/C1=C\c1ccc(-c2cc(=O)c3ccccc3o2)cc1`, the Activity was 130.3%. For the molecule `CN1C(=O)/C(=C/c2ccc(-c3cc(=O)c4ccccc4o3)cc2)N(C)C1=S`, the Activity is listed as 114.3%. Take `CCN1C(=O)/C(=C/c2ccc(-c3cc(=O)c4ccccc4o3)cc2)N(CC)C1=S`: the Activity came out at 96.27%. As to `O=C1NC(=O)C(Cc2cccc(-c3cc(=O)c4ccccc4o3)c2)S1` (stereo not drawn), the Activity came out at 69.89%. `O=C1NC(=O)/C(=C\c2cccc(-c3cc(=O)c4ccccc4o3)c2)S1`: the Activity came to 79.76%.

For `CN1C(=O)S/C(=C/c2cccc(-c3cc(=O)c4ccccc4o3)c2)C1=O`, the Activity worked out at 134.9%. Regarding `CCN1C(=O)S/C(=C/c2cccc(-c3cc(=O)c4ccccc4o3)c2)C1=O`, the Activity turned out to be 299%. As to `O=C1NC(=O)/C(=C\c2cccc(-c3cc(=O)c4ccccc4o3)c2)N1`, the Activity is recorded as 103.3%. `CN1C(=O)/C(=C\c2cccc(-c3cc(=O)c4ccccc4o3)c2)N(C)C1=O`: the Activity came to 218.3%. `CCN1C(=O)N/C(=C/c2cccc(-c3cc(=O)c4ccccc4o3)c2)C1=O`: the Activity turned out to be 167.8%.

With `O=C1NC(=S)N/C1=C/c1cccc(-c2cc(=O)c3ccccc3o2)c1`, the Activity was 247.1%. As to `CN1C(=O)/C(=C\c2cccc(-c3cc(=O)c4ccccc4o3)c2)N(C)C1=S`, the Activity is recorded as 102.8%.

For `CCN1C(=O)/C(=C\c2cccc(-c3cc(=O)c4ccccc4o3)c2)NC1=S`, the Activity worked out at 129.6%.

As to `O=C1NC(=O)C(Cc2ccc(-c3cc(=O)c4ccccc4o3)cc2)S1` (stereo not drawn), the Activity came out at 135.5%. Still for that read-out and setting: as for `CN1C(=O)S/C(=C\c2ccc(-c3cc(=O)c4ccccc4o3)cc2)C1=O`, the figure is 145.1%. Consider `CCN1C(=O)S/C(=C\c2ccc(-c3cc(=O)c4ccccc4o3)cc2)C1=O`, for which the Activity was determined as 117.9%. On to `O=C1NC(=O)/C(=C/c2ccc(-c3cc(=O)c4ccccc4o3)cc2)N1`, for which the Activity turned out to be 105.1%. Same read-out and setting: the result for `CN1C(=O)/C(=C/c2ccc(-c3cc(=O)c4ccccc4o3)cc2)N(C)C1=O` reads 103.4%; that for `CCN1C(=O)/C(=C/c2ccc(-c3cc(=O)c4ccccc4o3)cc2)N(CC)C1=O`, 127.1%; that for `O=C1NC(=O)/C(=C/c2ccc(-c3cc(=O)c4ccccc4o3)cc2)S1`, 55.7%.
